In ChEMBL document CHEMBL1909046, “DrugMatrix in vitro pharmacology data”:
pIC50, pKi: −log10 of the molar value.

Columns and labels:
[1] = target: Delta-type opioid receptor (Homo sapiens, UniProt P41143); type: cell membranes, HEK293, Membrane; conditions: hek293; also: in other assays of this panel Not Active means under 50% inhibition at 10 µM
[2] = target: T1, Amine oxidase [flavin-containing] A (Homo sapiens, UniProt P21397); assay: DRUGMATRIX: Monoamine Oxidase MAO-A enzyme inhibition (substrate: Kynuramine); design: species or system BTI-TN-5B1-4; conditions: bti-tn-5b1-4; Not Active = under 50% inhibition at 10 µM
T1 sequence (P21397 whole entry): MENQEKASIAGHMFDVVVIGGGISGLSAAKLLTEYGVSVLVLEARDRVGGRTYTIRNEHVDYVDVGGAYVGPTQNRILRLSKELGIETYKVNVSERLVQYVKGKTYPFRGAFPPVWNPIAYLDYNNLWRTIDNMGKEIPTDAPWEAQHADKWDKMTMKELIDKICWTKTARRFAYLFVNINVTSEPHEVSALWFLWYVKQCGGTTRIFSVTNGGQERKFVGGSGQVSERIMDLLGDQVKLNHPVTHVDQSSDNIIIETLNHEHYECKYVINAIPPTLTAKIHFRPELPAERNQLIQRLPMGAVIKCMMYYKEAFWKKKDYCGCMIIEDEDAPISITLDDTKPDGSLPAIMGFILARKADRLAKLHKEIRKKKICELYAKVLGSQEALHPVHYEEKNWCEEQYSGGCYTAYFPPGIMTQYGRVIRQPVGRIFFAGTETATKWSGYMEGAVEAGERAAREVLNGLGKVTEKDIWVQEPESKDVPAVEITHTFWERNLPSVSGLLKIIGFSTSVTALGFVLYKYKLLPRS

Melanocortin receptor 3 = Melanocortin receptor 3 (Homo sapiens, UniProt P41968); type: cell membranes, Membrane; conditions: hek293; also: in other assays of this panel Not Active means under 50% inhibition at 10 µM
[3] = DRUGMATRIX: Purinergic P2X radioligand binding (ligand: [3H] alpha, beta-Methylene-ATP); type: cell membranes, Oryctolagus cuniculus, New Zealand albino, Urinary bladder, Membrane; conditions: Not Active = under 50% inhibition at 10 µM
[4] = DRUGMATRIX: Platelet-Derived Growth Factor (PDGF) radioligand binding (ligand: [125I] PDGF); type: cell-based; conditions: nih3t3; Not Active = under 50% inhibition at 10 µM
[5] = target: T2, Alpha-2C adrenergic receptor (Homo sapiens, UniProt P18825); assay: DRUGMATRIX: Adrenergic Alpha-2C radioligand binding (ligand: [3H] MK-912); type: cell membranes, Sf9, Membrane; conditions: sf9
T2 sequence (P18825 whole entry): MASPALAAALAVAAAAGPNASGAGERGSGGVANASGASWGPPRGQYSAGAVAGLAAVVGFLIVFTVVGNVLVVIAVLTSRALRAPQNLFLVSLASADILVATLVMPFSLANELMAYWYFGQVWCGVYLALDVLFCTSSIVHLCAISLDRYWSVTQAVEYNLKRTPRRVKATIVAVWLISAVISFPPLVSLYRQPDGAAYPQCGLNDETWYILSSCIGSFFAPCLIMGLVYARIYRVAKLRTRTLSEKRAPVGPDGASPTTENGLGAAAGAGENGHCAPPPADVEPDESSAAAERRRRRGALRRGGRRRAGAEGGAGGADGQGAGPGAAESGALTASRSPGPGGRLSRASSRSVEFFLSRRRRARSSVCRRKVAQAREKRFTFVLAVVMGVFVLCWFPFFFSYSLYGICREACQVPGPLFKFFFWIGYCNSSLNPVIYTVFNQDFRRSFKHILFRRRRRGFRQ

[6] = DRUGMATRIX: Calcium Channel Type L, Benzothiazepine radioligand binding (ligand: [3H] Diltiazem); type: cell membranes, Rattus norvegicus, Wistar, Brain, Membrane; conditions: Not Active = under 50% inhibition at 10 µM
Interstitial collagenase = target: T3, Interstitial collagenase (Homo sapiens, UniProt P03956); type: tissue-based, Rheumatoid synovial fibroblasts;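 also: MMP-1 enzyme inhibition assay using a peptide substrate; in other assays of this panel Not Active means under 50% inhibition at 10 µM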
T3 sequence (P03956 whole entry): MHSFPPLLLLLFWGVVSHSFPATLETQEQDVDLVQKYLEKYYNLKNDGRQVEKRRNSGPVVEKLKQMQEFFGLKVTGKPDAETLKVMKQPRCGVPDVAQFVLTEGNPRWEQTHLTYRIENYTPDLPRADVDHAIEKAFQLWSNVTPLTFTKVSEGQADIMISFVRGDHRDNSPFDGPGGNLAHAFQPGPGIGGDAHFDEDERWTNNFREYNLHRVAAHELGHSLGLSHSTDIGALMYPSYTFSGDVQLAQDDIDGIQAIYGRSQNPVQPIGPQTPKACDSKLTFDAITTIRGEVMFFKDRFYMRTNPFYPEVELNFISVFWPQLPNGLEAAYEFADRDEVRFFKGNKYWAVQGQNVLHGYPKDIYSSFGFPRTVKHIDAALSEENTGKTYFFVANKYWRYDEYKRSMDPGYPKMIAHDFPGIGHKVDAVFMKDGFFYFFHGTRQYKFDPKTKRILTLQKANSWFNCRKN

[7] = target: T4, Alpha-1A adrenergic receptor (Rattus norvegicus, UniProt P43140); assay: DRUGMATRIX: Alpha-1A adrenergic receptor radioligand binding (ligand: prazosin); type: cell membranes, Wistar, Submaxillary gland, Membrane; conditions: Not Active = under 50% inhibition at 10 µM; for pIC50: read-out: IC50; for pKi: read-out: Ki
T4 sequence (P43140 whole entry): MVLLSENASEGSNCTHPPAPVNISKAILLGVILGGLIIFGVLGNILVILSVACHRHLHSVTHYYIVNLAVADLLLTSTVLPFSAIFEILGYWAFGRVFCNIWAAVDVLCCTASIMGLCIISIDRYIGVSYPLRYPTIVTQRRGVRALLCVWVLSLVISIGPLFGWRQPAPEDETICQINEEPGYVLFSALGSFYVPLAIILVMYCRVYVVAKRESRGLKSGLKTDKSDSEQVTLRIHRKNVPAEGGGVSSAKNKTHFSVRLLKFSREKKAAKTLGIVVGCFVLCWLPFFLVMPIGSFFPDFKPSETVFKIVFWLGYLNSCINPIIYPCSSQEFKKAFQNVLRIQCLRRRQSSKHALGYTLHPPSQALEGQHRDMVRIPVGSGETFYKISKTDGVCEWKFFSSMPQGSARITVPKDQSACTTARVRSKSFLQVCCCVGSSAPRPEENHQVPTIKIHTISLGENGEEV

[8] = target: Protein phosphatase 3 catalytic subunit alpha (Homo sapiens, UniProt Q08209); design: species or system Escherichia coli;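 also: inhibition of calcineurin (PP2B) enzyme activity, measured with DiFMUP as the substrate; in other assays of this panel Not Active means under 50% inhibition at 10 µM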
[9] = target: Matrix metalloproteinase-9 (Homo sapiens, UniProt P14780); type: cell-based
[10] = target: T5, C-X-C chemokine receptor type 2 (Homo sapiens, UniProt P25025); type: cell membranes, Membrane; conditions: cho-k1; also: in other assays of this panel Not Active means under 50% inhibition at 10 µM
T5 sequence (P25025 whole entry): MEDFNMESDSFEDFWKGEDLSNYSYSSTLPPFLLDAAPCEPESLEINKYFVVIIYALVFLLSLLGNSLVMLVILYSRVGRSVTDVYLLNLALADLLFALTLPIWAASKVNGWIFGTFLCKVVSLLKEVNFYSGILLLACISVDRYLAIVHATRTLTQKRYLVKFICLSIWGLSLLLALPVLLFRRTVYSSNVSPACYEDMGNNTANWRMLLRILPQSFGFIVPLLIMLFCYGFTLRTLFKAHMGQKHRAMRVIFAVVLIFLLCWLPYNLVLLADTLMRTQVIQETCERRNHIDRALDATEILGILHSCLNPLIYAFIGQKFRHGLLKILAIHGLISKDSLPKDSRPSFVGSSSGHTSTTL

Matrix metalloproteinase-9, sequence (P14780 whole entry): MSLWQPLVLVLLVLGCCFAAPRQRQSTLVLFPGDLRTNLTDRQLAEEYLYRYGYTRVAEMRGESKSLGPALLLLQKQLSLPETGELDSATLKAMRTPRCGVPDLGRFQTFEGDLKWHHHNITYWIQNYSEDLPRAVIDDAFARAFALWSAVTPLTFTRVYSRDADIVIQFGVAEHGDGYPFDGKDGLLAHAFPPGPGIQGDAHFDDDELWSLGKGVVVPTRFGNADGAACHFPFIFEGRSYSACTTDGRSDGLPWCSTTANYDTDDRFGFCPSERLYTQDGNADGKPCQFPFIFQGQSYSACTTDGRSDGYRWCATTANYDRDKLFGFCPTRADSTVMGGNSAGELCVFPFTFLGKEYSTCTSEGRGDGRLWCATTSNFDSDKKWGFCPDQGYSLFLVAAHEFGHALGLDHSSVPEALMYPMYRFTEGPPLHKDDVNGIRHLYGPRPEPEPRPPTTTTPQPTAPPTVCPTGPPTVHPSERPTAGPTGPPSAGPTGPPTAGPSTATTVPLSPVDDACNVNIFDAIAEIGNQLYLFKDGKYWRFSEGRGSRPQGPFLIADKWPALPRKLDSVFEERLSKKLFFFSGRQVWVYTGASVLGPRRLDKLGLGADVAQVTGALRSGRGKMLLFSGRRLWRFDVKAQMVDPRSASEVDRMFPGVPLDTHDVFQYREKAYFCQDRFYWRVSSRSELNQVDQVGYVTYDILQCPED
Delta-type opioid receptor, sequence (P41143 whole entry): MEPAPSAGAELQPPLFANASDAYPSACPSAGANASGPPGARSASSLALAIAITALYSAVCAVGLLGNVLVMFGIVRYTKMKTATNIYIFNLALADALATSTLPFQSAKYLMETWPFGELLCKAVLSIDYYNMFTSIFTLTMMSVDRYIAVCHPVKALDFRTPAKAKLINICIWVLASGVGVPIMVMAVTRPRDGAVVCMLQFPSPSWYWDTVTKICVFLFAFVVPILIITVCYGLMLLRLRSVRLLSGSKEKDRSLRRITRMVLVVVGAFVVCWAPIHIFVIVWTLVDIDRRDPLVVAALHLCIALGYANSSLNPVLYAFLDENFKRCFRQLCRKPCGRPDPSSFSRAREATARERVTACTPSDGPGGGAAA
Melanocortin receptor 3, sequence (P41968 whole entry): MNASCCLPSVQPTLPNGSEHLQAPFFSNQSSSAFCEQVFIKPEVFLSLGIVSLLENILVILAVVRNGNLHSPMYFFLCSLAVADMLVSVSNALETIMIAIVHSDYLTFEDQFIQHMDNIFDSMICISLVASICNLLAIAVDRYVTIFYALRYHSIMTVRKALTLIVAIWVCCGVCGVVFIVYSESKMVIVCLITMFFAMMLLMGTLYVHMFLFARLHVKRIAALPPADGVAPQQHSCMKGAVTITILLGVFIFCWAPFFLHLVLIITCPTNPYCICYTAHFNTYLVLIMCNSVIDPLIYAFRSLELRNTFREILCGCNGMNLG

SMILES: CCOC(=O)[C@H](CCc1ccccc1)N[C@@H](C)C(=O)N1[C@H](C(=O)O)C[C@@H]2CCC[C@@H]21
- IC50 [1]: Not Active
- IC50 [2]: Not Active
- IC50 (Melanocortin receptor 3): Not Active
- IC50 [3]: Not Active
- Ki [3]: Not Active
- IC50 [4]: Not Active
- Ki [4]: Not Active
- IC50 [5]: Not Active
- IC50 [6]: Not Active
- Ki [6]: Not Active
- IC50 (Interstitial collagenase): Not Active
- IC50 [7]: Not Active
- IC50 [8]: Not Active
- IC50 [9]: Not Active
- IC50 [10]: Not Active

SMILES: CC1(C)[C@H]2CC[C@]1(C)C(=O)C2 [(-)-CAMPHOR]
- IC50 [1]: Not Active
- IC50 [2]: Not Active
- IC50 (Melanocortin receptor 3): Not Active
- IC50 [3]: Not Active
- Ki [3]: Not Active
- IC50 [4]: Not Active
- Ki [4]: Not Active
- IC50 [5]: Not Active
- IC50 [6]: Not Active
- Ki [6]: Not Active
- IC50 (Interstitial collagenase): Not Active
- IC50 [7]: Not Active
- IC50 [8]: Not Active
- IC50 [9]: Not Active
- IC50 [10]: Not Active

SMILES: CC(C)(C)NCC(O)c1ccc(O)c(CO)c1 (configuration not stated) [ALBUTEROL]
- IC50 [1]: Not Active
- IC50 [2]: Not Active
- IC50 (Melanocortin receptor 3): Not Active
- IC50 [3]: Not Active
- Ki [3]: Not Active
- IC50 [4]: Not Active
- Ki [4]: Not Active
- IC50 [5]: Not Active
- IC50 [6]: Not Active
- Ki [6]: Not Active
- IC50 (Interstitial collagenase): Not Active
- IC50 [7]: Not Active
- IC50 [8]: Not Active
- IC50 [9]: Not Active
- IC50 [10]: Not Active

SMILES: Oc1c(I)cc(I)c2cccnc12 [IODOQUINOL]
- IC50 [1]: Not Active
- IC50 [2]: Not Active
- IC50 (Melanocortin receptor 3): Not Active
- IC50 [3]: Not Active
- Ki [3]: Not Active
- IC50 [4]: Not Active
- Ki [4]: Not Active
- IC50 [5]: Not Active
- IC50 [6]: Not Active
- Ki [6]: Not Active
- IC50 (Interstitial collagenase): Not Active
- IC50 [7]: Not Active
- IC50 [8]: Not Active
- IC50 [9]: Not Active
- IC50 [10]: Not Active

SMILES: NNC(=O)c1ccncc1 [ISONIAZID]
- IC50 [1]: Not Active
- IC50 [2]: Not Active
- IC50 (Melanocortin receptor 3): Not Active
- IC50 [3]: Not Active
- Ki [3]: Not Active
- IC50 [4]: Not Active
- Ki [4]: Not Active
- IC50 [5]: Not Active
- IC50 [6]: Not Active
- Ki [6]: Not Active
- IC50 (Interstitial collagenase): Not Active
- IC50 [7]: Not Active
- IC50 [8]: Not Active
- IC50 [9]: Not Active
- IC50 [10]: Not Active

SMILES: CC1=C(/C=C/C(C)=C/C=C/C(C)=C\C(=O)O)C(C)(C)CCC1 [ISOTRETINOIN]
- IC50 [1]: Not Active
- IC50 [2]: Not Active
- IC50 (Melanocortin receptor 3): Not Active
- IC50 [3]: Not Active
- Ki [3]: Not Active
- IC50 [4]: Not Active
- Ki [4]: Not Active
- IC50 [5]: Not Active
- IC50 [6]: Not Active
- Ki [6]: Not Active
- IC50 (Interstitial collagenase): Not Active
- IC50 [7]: Not Active
- IC50 [8]: Not Active
- IC50 [9]: Not Active
- IC50 [10]: Not Active

SMILES: CO[C@@H]1[C@@H](O[C@@H]2O[C@H](C)[C@@H](O[C@H]3C[C@@](C)(O)[C@@H](OC(=O)CC(C)C)[C@H](C)O3)[C@H](N(C)C)[C@H]2O)[C@@H](CC=O)C[C@@H](C)[C@@H](O)/C=C/C=C/C[C@@H](C)OC(=O)C[C@H]1O [KITASAMYCIN]
- IC50 [1]: Not Active
- IC50 [2]: Not Active
- IC50 (Melanocortin receptor 3): Not Active
- IC50 [3]: Not Active
- Ki [3]: Not Active
- IC50 [4]: Not Active
- Ki [4]: Not Active
- IC50 [5]: Not Active
- IC50 [6]: Not Active
- Ki [6]: Not Active
- IC50 (Interstitial collagenase): Not Active
- pIC50 [7]: 5.81
- pKi [7]: 6.20
- IC50 [8]: Not Active
- IC50 [9]: Not Active
- IC50 [10]: Not Active

SMILES: CC(CCc1ccccc1)NCC(O)c1ccc(O)c(C(N)=O)c1 (configuration not stated) [LABETALOL]
- IC50 [1]: Not Active
- IC50 [2]: Not Active
- IC50 (Melanocortin receptor 3): Not Active
- IC50 [3]: Not Active
- Ki [3]: Not Active
- IC50 [4]: Not Active
- Ki [4]: Not Active
- IC50 [5]: Not Active
- IC50 [6]: Not Active
- Ki [6]: Not Active
- IC50 (Interstitial collagenase): Not Active
- pIC50 [7]: 7.24
- pKi [7]: 7.64
- IC50 [8]: Not Active
- IC50 [9]: Not Active
- IC50 [10]: Not Active

SMILES: Nc1nnc(-c2cccc(Cl)c2Cl)c(N)n1 [LAMOTRIGINE]
- IC50 [1]: Not Active
- IC50 [2]: Not Active
- IC50 (Melanocortin receptor 3): Not Active
- IC50 [3]: Not Active
- Ki [3]: Not Active
- IC50 [4]: Not Active
- Ki [4]: Not Active
- IC50 [5]: Not Active
- IC50 [6]: Not Active
- Ki [6]: Not Active
- IC50 (Interstitial collagenase): Not Active
- IC50 [7]: Not Active
- IC50 [8]: Not Active
- IC50 [9]: Not Active
- IC50 [10]: Not Active
